ChEMBL document CHEMBL2029241, “Synthesis, characterization and in vitro anti-tumor activities of matrine derivatives” (Bioorg Med Chem Lett, 2012)
≈ marks a conversion by molar mass, not a printed value.

How the values were obtained:
Type in all cases: functional, cell-based
[1] = Cytotoxicity against human HEP7402 cells after 48 hrs by MTT assay
[2] = system: B16-F10; assay: Cytotoxicity against mouse B16F10 cells after 48 hrs by MTT assay
[3] = system: A549; assay: Cytotoxicity against human A549 cells after 48 hrs by MTT assay
[4] = Cytotoxicity against human TW03 cells after 48 hrs by MTT assay
[5] = Homo sapiens, 48 h, read-out: IC50
[6] = Mus musculus, B16-F10, 48 h, read-out: IC50
[7] = Homo sapiens, A549, 48 h, read-out: IC50
[8] = Homo sapiens, TW03, 48 h, read-out: IC50

Structure (SMILES) | IC50 [1, 5] | IC50 [2, 6] | IC50 [3, 7] | IC50 [4, 8] | IC50 [1] | IC50 ([2]; b16-f10) | IC50 ([3]; a549) | IC50 ([4]; tw03)
COc1ccc(/C=C2\CC[C@@H]3[C@H]4CCCN5CCC[C@@H](CN3C2=O)[C@@H]45)cc1 | 0.5 µg/mL (≈ 1.36 µM) | 0.8 µg/mL (≈ 2.18 µM) | 0.6 µg/mL (≈ 1.64 µM) | 1.2 µg/mL (≈ 3.27 µM) | – | – | – | –
O=C1/C(=C/c2ccc(Br)cc2)CC[C@@H]2[C@H]3CCCN4CCC[C@@H](CN12)[C@@H]34 | 0.7 µg/mL (≈ 1.69 µM) | 2.6 µg/mL (≈ 6.26 µM) | 1.9 µg/mL (≈ 4.57 µM) | 3.2 µg/mL (≈ 7.7 µM) | – | – | – | –
C1CCN2C[C@@H]3CCCN4CCC[C@@H]([C@H]34)[C@H]2C1 | – | – | – | – | Not Active | Not Active | Not Active | Not Active
O=C1/C(=C/c2cccc(F)c2)CC[C@@H]2[C@H]3CCCN4CCC[C@@H](CN12)[C@@H]34 | 1.5 µg/mL (≈ 4.23 µM) | 2.7 µg/mL (≈ 7.62 µM) | 3.4 µg/mL (≈ 9.59 µM) | 2.2 µg/mL (≈ 6.21 µM) | – | – | – | –
CCOC(=O)CCCC1NCC2CCCN3CCCC1C23 (stereo not drawn) | – | – | 32.3 µg/mL (≈ 110 µM) | – | Not Active | Not Active | – | Not Active
O=C1/C(=C/c2cccc([N+](=O)[O-])c2)CC[C@@H]2[C@H]3CCCN4CCC[C@@H](CN12)[C@@H]34 | 5.3 µg/mL (≈ 13.9 µM) | 8.5 µg/mL (≈ 22.3 µM) | 7.6 µg/mL (≈ 19.9 µM) | 2.4 µg/mL (≈ 6.29 µM) | – | – | – | –
O=C1/C(=C/c2ccc(Cl)cc2)CC[C@@H]2[C@H]3CCCN4CCC[C@@H](CN12)[C@@H]34 | 1.6 µg/mL (≈ 4.31 µM) | 3.9 µg/mL (≈ 10.5 µM) | 2.6 µg/mL (≈ 7.01 µM) | 2.8 µg/mL (≈ 7.55 µM) | – | – | – | –
COc1cc2c(c(OC)c1OC)-c1ccc(OC)c(=O)cc1[C@@H](NC(C)=O)CC2 [COLCHICINE] | 0.4 µg/mL (≈ 1 µM) | 0.8 µg/mL (≈ 2 µM) | 0.2 µg/mL (≈ 0.501 µM) | 1.3 µg/mL (≈ 3.25 µM) | – | – | – | –
O=C(c1ccccc1)C1CC[C@@H]2[C@H]3CCCN4CCC[C@@H](CN2C1=O)[C@@H]34 (stereo partly drawn) | 4.3 µg/mL (≈ 12.2 µM) | 10.6 µg/mL (≈ 30.1 µM) | 3.6 µg/mL (≈ 10.2 µM) | 2.4 µg/mL (≈ 6.81 µM) | – | – | – | –
O=C1/C(=C/c2ccc(F)cc2)CC[C@@H]2[C@H]3CCCN4CCC[C@@H](CN12)[C@@H]34 | 1.8 µg/mL (≈ 5.08 µM) | 2.5 µg/mL (≈ 7.05 µM) | 3 µg/mL (≈ 8.46 µM) | 1.9 µg/mL (≈ 5.36 µM) | – | – | – | –
O=C(c1ccco1)C1CC[C@@H]2[C@H]3CCCN4CCC[C@@H](CN2C1=O)[C@@H]34 (stereo partly drawn) | 11.8 µg/mL (≈ 34.5 µM) | 12.9 µg/mL (≈ 37.7 µM) | 6.6 µg/mL (≈ 19.3 µM) | 4.9 µg/mL (≈ 14.3 µM) | – | – | – | –
O=C1/C(=C/c2ccccc2)CC[C@@H]2[C@H]3CCCN4CCC[C@@H](CN12)[C@@H]34 | 10 µg/mL (≈ 29.7 µM) | 5.7 µg/mL (≈ 16.9 µM) | 4.6 µg/mL (≈ 13.7 µM) | 2.4 µg/mL (≈ 7.13 µM) | – | – | – | –
COc1cc(/C=C2\CC[C@@H]3[C@H]4CCCN5CCC[C@@H](CN3C2=O)[C@@H]45)cc(OC)c1OC | 7.8 µg/mL (≈ 18.3 µM) | 9.8 µg/mL (≈ 23 µM) | 3.8 µg/mL (≈ 8.91 µM) | 5.5 µg/mL (≈ 12.9 µM) | – | – | – | –
O=C(c1cccs1)C1CC[C@@H]2[C@H]3CCCN4CCC[C@@H](CN2C1=O)[C@@H]34 (stereo partly drawn) | 7.5 µg/mL (≈ 20.9 µM) | 4.5 µg/mL (≈ 12.6 µM) | 2.3 µg/mL (≈ 6.42 µM) | 8.1 µg/mL (≈ 22.6 µM) | – | – | – | –
O=C1/C(=C/c2ccc([N+](=O)[O-])cc2)CC[C@@H]2[C@H]3CCCN4CCC[C@@H](CN12)[C@@H]34 | 8.7 µg/mL (≈ 22.8 µM) | 2.8 µg/mL (≈ 7.34 µM) | 6.2 µg/mL (≈ 16.3 µM) | 3.7 µg/mL (≈ 9.7 µM) | – | – | – | –
O=C1/C(=C/c2ccc(Cl)c(Cl)c2)CC[C@@H]2[C@H]3CCCN4CCC[C@@H](CN12)[C@@H]34 | 11.3 µg/mL (≈ 27.9 µM) | 6.5 µg/mL (≈ 16 µM) | 4.7 µg/mL (≈ 11.6 µM) | 6.3 µg/mL (≈ 15.5 µM) | – | – | – | –
O=C(O)CCCC1NCC2CCCN3CCCC1C23 (stereo not drawn) | – | – | – | – | Not Active | Not Active | Not Active | Not Active
COc1cccc(/C=C2\CC[C@@H]3[C@H]4CCCN5CCC[C@@H](CN3C2=O)[C@@H]45)c1 | 3.4 µg/mL (≈ 9.28 µM) | 8.7 µg/mL (≈ 23.7 µM) | 2.3 µg/mL (≈ 6.28 µM) | 6.4 µg/mL (≈ 17.5 µM) | – | – | – | –
O=C1CCC[C@@H]2[C@H]3CCCN4CCC[C@@H](CN12)[C@@H]34 [MATRINE] | 15.3 µg/mL (≈ 61.6 µM) | 17 µg/mL (≈ 68.4 µM) | 9.7 µg/mL (≈ 39.1 µM) | 16.3 µg/mL (≈ 65.6 µM) | – | – | – | –
COC(=O)CCCC1NCC2CCCN3CCCC1C23 (stereo not drawn) | – | – | 31.4 µg/mL (≈ 112 µM) | – | Not Active | Not Active | – | Not Active
O=C1/C(=C/c2ccncc2)CC[C@@H]2[C@H]3CCCN4CCC[C@@H](CN12)[C@@H]34 | 8.6 µg/mL (≈ 25.5 µM) | 6.2 µg/mL (≈ 18.4 µM) | 5.7 µg/mL (≈ 16.9 µM) | 4.4 µg/mL (≈ 13 µM) | – | – | – | –
NC(=O)CCCC1NCC2CCCN3CCCC1C23 (stereo not drawn) | 11.4 µg/mL (≈ 43 µM) | 12.9 µg/mL (≈ 48.6 µM) | 18.6 µg/mL (≈ 70.1 µM) | 21.7 µg/mL (≈ 81.8 µM) | – | – | – | –
